Key:
CCRF-CEM = experiment: NCI-60 antiproliferative screen (SRB); assay type: cell-based, human; conditions: Homo sapiens; 10 µM single dose, 48 h; CCRF-CEM (Leukemia); read-out: Growth inhibition (%)
RPMI-8226 = experiment: NCI-60 antiproliferative screen (SRB); assay type: cell-based, human; conditions: Homo sapiens; 10 µM single dose, 48 h; RPMI-8226 (Leukemia); read-out: Growth inhibition (%)
EKVX = experiment: NCI-60 antiproliferative screen (SRB); assay type: cell-based, human; conditions: Homo sapiens; 10 µM single dose, 48 h; EKVX (NSCLC); read-out: Growth inhibition (%)
HOP-62 = experiment: NCI-60 antiproliferative screen (SRB); assay type: cell-based, human; conditions: Homo sapiens; 10 µM single dose, 48 h; HOP-62 (NSCLC); read-out: Growth inhibition (%)
HOP-92 = experiment: NCI-60 antiproliferative screen (SRB); assay type: cell-based, human; conditions: Homo sapiens; 10 µM single dose, 48 h; HOP-92 (NSCLC); read-out: Growth inhibition (%)
NCI-H460 = experiment: NCI-60 antiproliferative screen (SRB); assay type: cell-based, human; conditions: Homo sapiens; 10 µM single dose, 48 h; NCI-H460 (NSCLC); read-out: Growth inhibition (%)
NCI-H522 = experiment: NCI-60 antiproliferative screen (SRB); assay type: cell-based, human; conditions: Homo sapiens; 10 µM single dose, 48 h; NCI-H522 (NSCLC); read-out: Growth inhibition (%)
COLO 205 = experiment: NCI-60 antiproliferative screen (SRB); assay type: cell-based, human; conditions: Homo sapiens; 10 µM single dose, 48 h; COLO 205 (Colon); read-out: Growth inhibition (%)
KM12 = experiment: NCI-60 antiproliferative screen (SRB); assay type: cell-based, human; conditions: Homo sapiens; 10 µM single dose, 48 h; KM12 (Colon); read-out: Growth inhibition (%)
SF-268 = experiment: NCI-60 antiproliferative screen (SRB); assay type: cell-based, human; conditions: Homo sapiens; 10 µM single dose, 48 h; SF-268 (CNS); read-out: Growth inhibition (%)
SNB-19 = experiment: NCI-60 antiproliferative screen (SRB); assay type: cell-based, human; conditions: Homo sapiens; 10 µM single dose, 48 h; SNB-19 (CNS); read-out: Growth inhibition (%)
M14 = experiment: NCI-60 antiproliferative screen (SRB); assay type: cell-based, human; conditions: Homo sapiens; 10 µM single dose, 48 h; M14 (Melanoma); read-out: Growth inhibition (%)
SK-MEL-28 = experiment: NCI-60 antiproliferative screen (SRB); assay type: cell-based, human; conditions: Homo sapiens; 10 µM single dose, 48 h; SK-MEL-28 (Melanoma); read-out: Growth inhibition (%)
SK-MEL-5 = experiment: NCI-60 antiproliferative screen (SRB); assay type: cell-based, human; conditions: Homo sapiens; 10 µM single dose, 48 h; SK-MEL-5 (Melanoma); read-out: Growth inhibition (%)
UACC-257 = experiment: NCI-60 antiproliferative screen (SRB); assay type: cell-based, human; conditions: Homo sapiens; 10 µM single dose, 48 h; UACC-257 (Melanoma); read-out: Growth inhibition (%)
UACC-62 = experiment: NCI-60 antiproliferative screen (SRB); assay type: cell-based, human; conditions: Homo sapiens; 10 µM single dose, 48 h; UACC-62 (Melanoma); read-out: Growth inhibition (%)
IGROV1 = experiment: NCI-60 antiproliferative screen (SRB); assay type: cell-based, human; conditions: Homo sapiens, IGROV-1; 10 µM single dose, 48 h; IGROV1 (Ovarian); read-out: Growth inhibition (%)
OVCAR-5 = experiment: NCI-60 antiproliferative screen (SRB); assay type: cell-based, human; conditions: Homo sapiens; 10 µM single dose, 48 h; OVCAR-5 (Ovarian); read-out: Growth inhibition (%)
NCI/ADR-RES = experiment: NCI-60 antiproliferative screen (SRB); assay type: cell-based, human; conditions: Homo sapiens; 10 µM single dose, 48 h; NCI/ADR-RES (Ovarian); read-out: Growth inhibition (%)
SK-OV-3 = experiment: NCI-60 antiproliferative screen (SRB); assay type: cell-based, human; conditions: Homo sapiens; 10 µM single dose, 48 h; SK-OV-3 (Ovarian); read-out: Growth inhibition (%)
A498 = experiment: NCI-60 antiproliferative screen (SRB); assay type: cell-based, human; conditions: Homo sapiens; 10 µM single dose, 48 h; A498 (Renal); read-out: Growth inhibition (%)
ACHN = experiment: NCI-60 antiproliferative screen (SRB); assay type: cell-based, human; conditions: Homo sapiens; 10 µM single dose, 48 h; ACHN (Renal); read-out: Growth inhibition (%)
RXF 393 = experiment: NCI-60 antiproliferative screen (SRB); assay type: cell-based, human; conditions: Homo sapiens; 10 µM single dose, 48 h; RXF 393 (Renal); read-out: Growth inhibition (%)
TK-10 = experiment: NCI-60 antiproliferative screen (SRB); assay type: cell-based, human; conditions: Homo sapiens; 10 µM single dose, 48 h; TK-10 (Renal); read-out: Growth inhibition (%)
UO-31 = experiment: NCI-60 antiproliferative screen (SRB); assay type: cell-based, human; conditions: Homo sapiens; 10 µM single dose, 48 h; UO-31 (Renal); read-out: Growth inhibition (%)
MCF7 = experiment: NCI-60 antiproliferative screen (SRB); assay type: cell-based, human; conditions: Homo sapiens; 10 µM single dose, 48 h; MCF7 (Breast); read-out: Growth inhibition (%)
MDA-MB-231 = experiment: NCI-60 antiproliferative screen (SRB); assay type: cell-based, human; conditions: Homo sapiens; 10 µM single dose, 48 h; MDA-MB-231 (Breast); read-out: Growth inhibition (%)
T-47D = experiment: NCI-60 antiproliferative screen (SRB); assay type: cell-based, human; conditions: Homo sapiens, T47D; 10 µM single dose, 48 h; T-47D (Breast); read-out: Growth inhibition (%)
SR = experiment: NCI-60 antiproliferative screen (SRB); conditions: Homo sapiens, 48 h, read-out: Growth inhibition (%)
OVCAR-4 = experiment: NCI-60 antiproliferative screen (SRB); conditions: Homo sapiens, OVCAR-4, 48 h, read-out: Growth inhibition (%)

| SMILES | inhibition at 10 µM (CCRF-CEM) [%] | inhibition at 10 µM (RPMI-8226) [%] | inhibition at 10 µM (EKVX) [%] | inhibition at 10 µM (HOP-62) [%] | inhibition at 10 µM (HOP-92) [%] | inhibition at 10 µM (NCI-H460) [%] | inhibition at 10 µM (NCI-H522) [%] | inhibition at 10 µM (COLO 205) [%] | inhibition at 10 µM (KM12) [%] | inhibition at 10 µM (SF-268) [%] | inhibition at 10 µM (SNB-19) [%] | inhibition at 10 µM (M14) [%] | inhibition at 10 µM (SK-MEL-28) [%] | inhibition at 10 µM (SK-MEL-5) [%] | inhibition at 10 µM (UACC-257) [%] | inhibition at 10 µM (UACC-62) [%] | inhibition at 10 µM (IGROV1) [%] | inhibition at 10 µM (OVCAR-5) [%] | inhibition at 10 µM (NCI/ADR-RES) [%] | inhibition at 10 µM (SK-OV-3) [%] | further results |
| --- | --- | --- | --- | --- | --- | --- | --- | --- | --- | --- | --- | --- | --- | --- | --- | --- | --- | --- | --- | --- | --- |
| O=C1Nc2ccc(Cl)cc2C1=Cc1ccc(OCc2ccccc2)cc1 (mixture of isomers) [Compound 5c, (E/Z)-3-[4-(Benzyloxy)benzylidene]-5-chloroindolin-2-one] | 0.21 | -3.85 | 0.85 | 3.77 | 9.75 | -3.66 | 2.1 | -6.62 | -1.02 | 3.26 | -1.05 | 7.34 | -8.75 | 1.9 | -6.58 | 5.69 | -5.14 | -2.92 | 1.88 | -1.7 | inhibition at 10 µM (A498): -2.37%; inhibition at 10 µM (ACHN): -1.45%; inhibition at 10 µM (RXF 393): -5.38%; inhibition at 10 µM (TK-10): -12.7%; inhibition at 10 µM (UO-31): 23.9%; inhibition at 10 µM (MCF7): 16%; inhibition at 10 µM (MDA-MB-231): -5.3%; inhibition at 10 µM (T-47D): 4.11%; melting point: 214 to 216 °C; inhibition at 10 µM (SR): -0.06%; inhibition at 10 µM (OVCAR-4): -7.18% |
| O=C1Nc2cc(Cl)ccc2C1=Cc1ccc(OCc2ccncc2)cc1 (mixture of isomers) [Compound 5p, (E/Z)-6-Chloro-3-[4-(pyridin-4-ylmethoxy)benzylidene]indolin-2-one] | 34.4 | 74.9 | 45.1 | 21.4 | 49.6 | 36.8 | 45.2 | 39.7 | 47.8 | 16.7 | 28.7 | 16.9 | -10.9 | 65 | 17.2 | 34.7 | 67.9 | -29.4 | 59.3 | 15.5 | inhibition at 10 µM (A498): -1.39%; inhibition at 10 µM (ACHN): 34%; inhibition at 10 µM (RXF 393): 67.4%; inhibition at 10 µM (TK-10): -0.51%; inhibition at 10 µM (UO-31): 49%; inhibition at 10 µM (MCF7): 71.6%; inhibition at 10 µM (MDA-MB-231): 32.7%; inhibition at 10 µM (T-47D): 67.1%; melting point: 233 to 235 °C; inhibition at 10 µM (SR): 72.6%; inhibition at 10 µM (OVCAR-4): 31.8% |
| O=C1Nc2cc(Cl)ccc2C1=Cc1ccc(OCc2ccccc2)cc1 (mixture of isomers) [Compound 5d, (E/Z)-3-[4-(Benzyloxy)benzylidene]-6-chloroindolin-2-one] | -2.18 | -7.36 | -0.31 | 3.85 | -8.67 | -4.48 | 0.19 | -9.74 | 4.92 | 5.55 | -3.09 | 3.83 | -2.97 | 2.83 | -16.1 | 4.09 | 8.41 | -0.55 | -4.24 | -3.01 | inhibition at 10 µM (A498): 6.98%; inhibition at 10 µM (ACHN): 5.18%; inhibition at 10 µM (RXF 393): -14.2%; inhibition at 10 µM (TK-10): -54%; inhibition at 10 µM (UO-31): 23.8%; inhibition at 10 µM (MCF7): 38.4%; inhibition at 10 µM (MDA-MB-231): -3.65%; inhibition at 10 µM (T-47D): 4.32%; melting point: 259 to 261 °C; inhibition at 10 µM (SR): -4.93%; inhibition at 10 µM (OVCAR-4): 3.65% |
